Data reported in PubChem BioAssay (NCI).
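Exposure lasted 48 hours, with cells grown in 96-well plates and compounds tested at five concentrations. At the GI50, growth is halved. TGI denotes the concentration required for complete inhibition of growth.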

What was measured:
Assay in all cases: DTP human tumour cell line panel, 48 h
[1] = tested on: DU-145 prostate
[2] = tested on: IGROV1 ovarian
[3] = tested on: HOP-62 NSCLC
[4] = tested on: NCI/ADR-RES ovarian
[5] = tested on: SW-620 colon
[6] = tested on: UACC-62 melanoma
[7] = tested on: SK-MEL-28 melanoma
[8] = tested on: CCRF-CEM leukemia
[9] = tested on: CAKI-1 renal
[10] = tested on: MOLT-4 leukemia
[11] = tested on: SNB-19 CNS
[12] = tested on: SN12C renal
[13] = tested on: MDA-MB-231 breast
[14] = tested on: OVCAR-3 ovarian
[15] = tested on: K-562 leukemia
[16] = tested on: MCF7 breast
[17] = tested on: SK-MEL-5 melanoma
[18] = tested on: KM12 colon
[19] = tested on: EKVX NSCLC
[20] = tested on: OVCAR-5 ovarian
[21] = tested on: SK-OV-3 ovarian
[22] = tested on: SF-539 CNS
[23] = tested on: PC-3 prostate
[24] = tested on: A498 renal
[25] = tested on: TK-10 renal
[26] = tested on: HCC-2998 colon
[27] = tested on: SF-268 CNS
[28] = tested on: HT29 colon
[29] = tested on: RPMI-8226 leukemia
[30] = tested on: NCI-H460 lung
[31] = tested on: MDA-MB-435
[32] = tested on: NCI-H226 lung
[33] = tested on: HL-60(TB) leukemia
[34] = tested on: A549 NSCLC
[35] = tested on: T-47D breast
[36] = tested on: HCT-15 colon
[37] = tested on: SNB-75 CNS
[38] = tested on: SK-MEL-2 melanoma
[39] = tested on: LOX IMVI melanoma
[40] = tested on: NCI-H23 lung
[41] = tested on: SR leukemia
[42] = tested on: SF-295 CNS
[43] = tested on: COLO 205 colon
[44] = tested on: BT-549 breast
[45] = tested on: HS 578T breast
[46] = tested on: OVCAR-8 ovarian
[47] = tested on: HOP-92 NSCLC
[48] = tested on: UO-31 renal
[49] = tested on: NCI-H522 lung
[50] = tested on: UACC-257 melanoma
[51] = tested on: OVCAR-4 ovarian
[52] = tested on: 786-0 renal
[53] = tested on: ACHN renal
[54] = tested on: U251 CNS
[55] = tested on: HCT-116 colon
[56] = tested on: M14 melanoma
[57] = tested on: RXF 393 renal

Molecule `Cn1cc(-c2ccc3cc(-c4ccc(CC(=O)Nc5cc(C(C)(C)C)on5)cc4)cnc3c2)cn1` has a GI50 [1] of 1.05 µM, a TGI [1] of 10.2 µM and a GI50 [2] of 0.356 µM. The TGI [2] was 3.52 µM, the GI50 [3] was 2.54 µM and the TGI [3] was > 100 µM. For the same molecule, the GI50 [4] was 1.84 µM, the TGI [4] was 5.11 µM and the GI50 [5] was 1.54 µM. It also gave a TGI [5] of 3.99 µM, a GI50 [6] of 1.02 µM and a TGI [6] of 3.12 µM. It also gave a GI50 [7] of 1.95 µM, a TGI [7] of 5.25 µM and a GI50 [8] of 2.17 µM. For the same molecule, the TGI [8] was > 100 µM, the GI50 [9] was 0.426 µM and the TGI [9] was 3.45 µM. For the same molecule, the GI50 [10] was 3.01 µM, the TGI [10] was > 100 µM and the GI50 [11] was 2.18 µM. For the same molecule, the TGI [11] was 8.68 µM, the GI50 [12] was 1.15 µM and the TGI [12] was 10.4 µM. It also gave a GI50 [13] of 2.26 µM, a TGI [13] of 12.2 µM and a GI50 [14] of 2.49 µM. The TGI [14] was 12.7 µM, the GI50 [15] was 1.85 µM and the TGI [15] was > 100 µM. It also gave a GI50 [16] of 1.92 µM, a TGI [16] of 17.8 µM and a GI50 [17] of 2.31 µM. The TGI [17] was 6.55 µM, the GI50 [18] was 0.07 µM and the TGI [18] was 11.2 µM. For the same molecule, the GI50 [19] was 0.624 µM, the TGI [19] was 3.45 µM and the GI50 [20] was 4.4 µM. For the same molecule, the TGI [20] was 18.9 µM, the GI50 [21] was 0.657 µM and the TGI [21] was > 100 µM. The GI50 [22] was 0.339 µM, the TGI [22] was 14.4 µM and the GI50 [23] was 2.4 µM. It also gave a TGI [23] of 20.8 µM, a GI50 [24] of 0.269 µM and a TGI [24] of 2.26 µM. The GI50 [25] was 1.63 µM, the TGI [25] was 10.4 µM and the GI50 [26] was 2.89 µM. For the same molecule, the TGI [26] was 21 µM, the GI50 [27] was 1.96 µM and the TGI [27] was 14.8 µM. The GI50 [28] was 2.26 µM, the TGI [28] was > 100 µM and the GI50 [29] was 2.34 µM. The TGI [29] was > 100 µM, the GI50 [30] was 0.84 µM and the TGI [30] was 2.55 µM. It also gave a GI50 [31] of 1.43 µM, a TGI [31] of 3.54 µM and a GI50 [32] of 2.46 µM. It also gave a TGI [32] of 34.6 µM, a GI50 [33] of 2.66 µM and a TGI [33] of 7.45 µM. For the same molecule, the GI50 [34] was 1.72 µM, the TGI [34] was > 100 µM and the GI50 [35] was 2.68 µM. The TGI [35] was > 100 µM, the GI50 [36] was 0.466 µM and the TGI [36] was 4.87 µM. The GI50 [37] was 1.11 µM, the TGI [37] was 3.03 µM and the GI50 [38] was 0.922 µM. For the same molecule, the TGI [38] was 12.4 µM, the GI50 [39] was 0.945 µM and the TGI [39] was 10.9 µM. For the same molecule, the GI50 [40] was 2.27 µM, the TGI [40] was 10.5 µM and the GI50 [41] was 3.07 µM. The TGI [41] was > 100 µM, the GI50 [42] was 1.65 µM and the TGI [42] was 6.74 µM. For the same molecule, the GI50 [43] was 2.95 µM, the TGI [43] was > 100 µM and the GI50 [44] was 2.08 µM. For the same molecule, the TGI [44] was 31.8 µM, the GI50 [45] was 0.397 µM and the TGI [45] was 15.2 µM. For the same molecule, the GI50 [46] was 2.16 µM, the TGI [46] was > 100 µM and the GI50 [47] was 4.23 µM. The TGI [47] was 26 µM, the GI50 [48] was 0.382 µM and the TGI [48] was 3.14 µM.
For `COc1ccccc1NC(=O)CC(=O)N1N=C(N2c3ccccc3Sc3ccccc32)CC1c1ccccc1` (configuration not stated), the TGI [1] was > 100 µM, the TGI [2] was > 100 µM and the TGI [3] was > 100 µM. For the same molecule, the TGI [4] was > 100 µM, the TGI [5] was > 100 µM and the TGI [6] was > 100 µM. The TGI [7] was > 100 µM, the TGI [8] was > 100 µM and the TGI [9] was > 100 µM. For the same molecule, the TGI [10] was > 100 µM, the TGI [49] was > 100 µM and the TGI [11] was > 100 µM. The TGI [12] was > 100 µM, the TGI [13] was > 100 µM and the TGI [14] was > 100 µM. The TGI [15] was > 100 µM, the TGI [16] was > 100 µM and the TGI [17] was > 100 µM. For the same molecule, the TGI [18] was > 100 µM, the TGI [19] was > 100 µM and the TGI [20] was > 100 µM. For the same molecule, the TGI [21] was > 100 µM, the TGI [22] was > 100 µM and the TGI [50] was > 100 µM. The TGI [23] was > 100 µM, the TGI [51] was > 100 µM and the TGI [24] was > 100 µM. The TGI [52] was > 100 µM, the TGI [25] was > 100 µM and the TGI [26] was > 100 µM. For the same molecule, the TGI [53] was > 100 µM, the TGI [27] was > 100 µM and the TGI [28] was > 100 µM. For the same molecule, the TGI [54] was > 100 µM, the TGI [29] was > 100 µM and the TGI [30] was > 100 µM. The TGI [31] was > 100 µM, the TGI [32] was > 100 µM and the TGI [55] was > 100 µM. The TGI [33] was > 100 µM, the TGI [34] was > 100 µM and the TGI [35] was > 100 µM. The TGI [36] was > 100 µM, the TGI [37] was > 100 µM and the TGI [38] was > 100 µM. The TGI [56] was > 100 µM, the TGI [40] was > 100 µM and the TGI [41] was > 100 µM. For the same molecule, the TGI [42] was > 100 µM, the TGI [43] was > 100 µM and the TGI [44] was > 100 µM. For the same molecule, the TGI [45] was > 100 µM, the TGI [46] was > 100 µM and the TGI [57] was > 100 µM. The TGI [47] was > 100 µM and the TGI [48] was > 100 µM.
